The first assay relates to vertebral artery. The assay can be described thus: vascular resistance of the vertebral artery in anesthetized dogs (ED30). In kind it is in vivo, dog. The conditions noted are these: Canis lupus familiaris, intravenous injection.
`COc1ccc(CN(CCOC(=O)N2C(C)=NC(C)=C(C(=O)OC(C)C)C2c2ccccc2[N+](=O)[O-])Cc2ccccc2)cc1` (centres unmarked) [Example 2] had an ED30 of 1.8 µg/kg. On the same count and under the same terms, then `CC1=NC(C)=C(C(=O)OC(C)C)C(c2ccccc2[N+](=O)[O-])N1C(=O)OCCN(Cc1ccccc1)Cc1cccc(F)c1` (centres unmarked) [Example 11], with 2.1 µg/kg; and `CC1=NC(C)=C(C(=O)OC(C)C)C(c2ccccc2[N+](=O)[O-])N1C(=O)OCCN(Cc1ccccc1)Cc1ccc(Cl)c(Cl)c1` (centres unmarked) [Example 1, 3-[2-{N-benzyl-N-(3,4-dichlorobenzyl)amino}ethoxycarbonyl]-5-isopropoxycarbonyl-2,6-dimethyl-4-(2-nitrophenyl)-3,4-dihydropyrimidine], with 2.1 µg/kg; and `CC1=NC(C)=C(C(=O)OC(C)C)C(c2ccccc2[N+](=O)[O-])N1C(=O)OCCN(Cc1ccccc1)Cc1ccccc1F` (centres unmarked) [Example 9], with 2.3 µg/kg.

`CC1=NC(C)=C(C(=O)OC(C)C)C(c2ccccc2[N+](=O)[O-])N1C(=O)OCCN(Cc1ccc(F)cc1)Cc1ccc(F)cc1` (centres unmarked) [Example 6]: the ED30 came out at 1.3 µg/kg. Take `CC1=NC(C)=C(C(=O)OC(C)C)C(c2ccccc2[N+](=O)[O-])N1C(=O)OCCN(Cc1ccccc1)Cc1ccc(F)cc1` (centres unmarked) [Example 3]: the ED30 came to 2.6 µg/kg. On the same count and under the same terms, then `CC1=NC(C)=C(C(=O)OC(C)C)C(c2ccccc2[N+](=O)[O-])N1C(=O)OCCN(Cc1ccccc1)Cc1ccccc1Cl` (centres unmarked) [Example 13], with 4.7 µg/kg. `CC1=NC(C)=C(C(=O)OC(C)C)C(c2ccccc2[N+](=O)[O-])N1C(=O)OCCN(Cc1ccccc1)Cc1ccc(Cl)cc1` (centres unmarked) [Example 4] showed an ED30 of 2.9 µg/kg. Still for that read-out and setting: then `CC1=NC(C)=C(C(=O)OC(C)C)C(c2ccccc2[N+](=O)[O-])N1C(=O)OCCN(Cc1ccccc1)Cc1ccc(C)cc1` (centres unmarked) [Example 5], with 2.8 µg/kg. For the compound `COc1cccc(CN(CCOC(=O)N2C(C)=NC(C)=C(C(=O)OC(C)C)C2c2ccccc2[N+](=O)[O-])Cc2ccccc2)c1` (centres unmarked) [Example 10], the ED30 was determined as 1.8 µg/kg.

The next assay has as its system vertebral artery. The assay can be described thus: time course of changes in the vascular resistance of the vertebral artery in anesthetized dogs (T1/2). The format is in vivo, dog. The conditions noted are these: injected with the ED30 doses. The protocol: Adult dogs of either sex (7~14 kg in body weight) were anesthetized with at first thiopental sodium (35 mg/kg, intraperitoneal), anesthetized with urethane (400 mg/kg, intravenous) and chloralose (60 mg/kg, intravenous) and kept under artificial respiration throughout the experiment. After thoracotomy at the left first intercostal space, the vertebral artery was exposed and blood flow was measured with intracorporeal flow probe connected to an electromagnetic flowmeter (MF-27, Nihon Kohden).
At the same time, continuous measurement of the following parameters was made: systemic blood pressure (mean pressure) at the right femoral artery, the limb lead II ECG, the heart rate with a tachometer triggered by the R wave of ECG, and the vascular resistance determined by loading a electronic divider unit (EO-601 G, Nihon Kohden) with the mean values of blood pressure and vertebral artery blood flow. All of these parameters were recorded simultaneously on a polygraph (RM-600, Nihon Kohden).
All the test compounds were injected through a cannula inserted into the femoral vein.
Selected compounds of the present invention were tested for their ability to reduce the resistance of the vertebral artery in anesthetized dogs.
The animals were injected with the ED30 doses of test compounds and the time course of changes in the vascular resistance were studied in the same manner as in Example 26. The time course of changes can be as shown schematically in FIG. 1. From the curve shown in FIG. 1, the values of T1/2 (min) (the time to reach 50% of the resistance drop) were calculated. The results are shown in Table 3, in which the compound numbers correspond to the Example numbers.
For `COc1ccc(CN(CCOC(=O)N2C(C)=NC(C)=C(C(=O)OC(C)C)C2c2ccccc2[N+](=O)[O-])Cc2ccccc2)cc1` (centres unmarked) [Example 2], the “T1/2 (the time to reach 50% of the resistance drop)” value is listed as 8.2 min. Same read-out and setting: then `CC1=NC(C)=C(C(=O)OC(C)C)C(c2ccccc2[N+](=O)[O-])N1C(=O)OCCN(Cc1ccccc1)Cc1ccc(Cl)c(Cl)c1` (centres unmarked) [Example 1, 3-[2-{N-benzyl-N-(3,4-dichlorobenzyl)amino}ethoxycarbonyl]-5-isopropoxycarbonyl-2,6-dimethyl-4-(2-nitrophenyl)-3,4-dihydropyrimidine], with > 25.0 min; and `CC1=NC(C)=C(C(=O)OC(C)C)C(c2ccccc2[N+](=O)[O-])N1C(=O)OCCN(Cc1ccc(Cl)cc1)Cc1cccc(Cl)c1` (centres unmarked) [Example 22], with 19.5 min; and `CC1=NC(C)=C(C(=O)OC(C)C)C(c2ccccc2[N+](=O)[O-])N1C(=O)OCCN(Cc1ccccc1)Cc1c(Cl)cccc1Cl` (centres unmarked) [Example 25], with 11.7 min. On to `CC1=NC(C)=C(C(=O)OC(C)C)C(c2ccccc2[N+](=O)[O-])N1C(=O)OCCN(Cc1ccccc1)Cc1ccc(Cl)cc1Cl` (centres unmarked) [Example 15], for which the “T1/2 (the time to reach 50% of the resistance drop)” value is recorded as > 20.0 min.

As to `CC1=NC(C)=C(C(=O)OC(C)C)C(c2cccc([N+](=O)[O-])c2)N1C(=O)OCCN(Cc1ccccc1)Cc1ccc(Cl)c(Cl)c1` (centres unmarked) [Example 24, 3-[2-{N-benzyl-N-(3,4-dichlorobenzyl)amino}ethoxycarbonyl]-5-isopropoxycarbonyl-2,6-dimethyl-4-(3-nitrophenyl)-3,4-dihydropyrimidine], the “T1/2 (the time to reach 50% of the resistance drop)” value is given as 16.0 min. The same measure, in the same setting: then `COc1ccc(CN(CCOC(=O)N2C(C)=NC(C)=C(C(=O)OC(C)C)C2c2ccccc2[N+](=O)[O-])Cc2ccc(Cl)c(Cl)c2)cc1` (centres unmarked) [Example 21], with 20.0 min; and `CC1=NC(C)=C(C(=O)OC(C)C)C(c2ccccc2[N+](=O)[O-])N1C(=O)OCCN(Cc1ccccc1)Cc1cccc(Cl)c1` (centres unmarked) [Example 14], with 10.6 min. Same read-out and setting: then `CC1=NC(C)=C(C(=O)OC(C)C)C(c2ccccc2[N+](=O)[O-])N1C(=O)OCCN(Cc1ccc(Cl)cc1)Cc1ccc([N+](=O)[O-])cc1` (centres unmarked) [Example 20], with 10.2 min; and `CC1=NC(C)=C(C(=O)OC(C)C)C(c2ccccc2[N+](=O)[O-])N1C(=O)OCCN(Cc1ccccc1)Cc1ccc(C(F)(F)F)cc1` (centres unmarked) [Example 16], with 7.9 min.

These data come from patent publication US4920124A, “N-substituted 3,4-dihydropyrimidine compounds as agents for treating disorders of cardiovascular system” (Suntory Limited, priority 1987, dated 1990).
